From patent US20240025880A1 (CHIESI FARMACEUTICI S.P.A., priority 2020, published 2024) come the findings set out here.

For this test, the target named is T1, h P2X3 (Homo sapiens, UniProt P56373).
T1 sequence (P56373 1-397): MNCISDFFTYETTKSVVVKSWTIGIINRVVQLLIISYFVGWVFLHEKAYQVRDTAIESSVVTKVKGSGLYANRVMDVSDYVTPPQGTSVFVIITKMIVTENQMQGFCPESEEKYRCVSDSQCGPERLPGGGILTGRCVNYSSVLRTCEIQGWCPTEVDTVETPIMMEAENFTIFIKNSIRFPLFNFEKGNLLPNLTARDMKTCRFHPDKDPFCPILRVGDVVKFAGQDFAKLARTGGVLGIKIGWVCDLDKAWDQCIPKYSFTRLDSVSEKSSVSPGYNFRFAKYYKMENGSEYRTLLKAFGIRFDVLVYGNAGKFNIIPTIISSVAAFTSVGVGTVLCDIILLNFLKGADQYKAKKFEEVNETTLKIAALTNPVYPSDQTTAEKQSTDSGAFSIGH
The experiment in a line: In vitro electrophysiology assay for P2X3 (automated whole-cell patch clamp, α,β-MeATP agonist). The class given is cell-based. Conditions: Table 2; 800 nM α,β-MeATP, peak current; read-out: h P2X3 (pIC50 range of activity) (converted). Here is the method:
In Vitro Electrophysiology Assay for P2X3
Cells expressing P2X3 receptors were grown according to standard practice and maintained at 37° C. in a 5% humidified CO2 atmosphere. The cells were seeded into T175 flask 2 days prior to the day of the assay and dissociated from the flasks using TrypLE when grown to confluence of 80-90%. The dissociated cells were resuspended in serum free media at a cell density of 3×10^6 cells/ml and loaded onto the Sophion Qube automated patch-clamp system. The extracellular assay buffer contained 145 mM NaCl, 4 mM KCl, 2 mM CaCl2, 1 mM MgCl2, 10 mM HEPES, and 10 mM glucose at pH 7.4. The intracellular assay solution contained 140 mM CsF, 10 mM NaCl, 10 mM EGTA, 10 mM HEPES at pH 7.2. Agonist stock solutions were prepared in H2O and diluted in bath solution prior to use. All antagonists were prepared as 10 mM stock solutions in DMSO and diluted in bath solution prior to use. All experiments were performed under the whole-cell patch clamp configuration at room temperature with 384 individual cells being voltage clamped at −60 mV simultaneously on the Sophion Qube instrument. Two baseline responses were established with the application of α,β-MeATP (800 nM), with the subsequent agonist applications being washed out using extracellular assay buffer containing 0.5 U/ml apyrase. Following the second agonist application, antagonist was incubated in the absence of α,β-MeATP for 10 minutes. After antagonist preincubation, 800 nM α,β-MeATP and antagonist were co-administered to determine the inhibitory effect of the antagonist. One concentration of an antagonist was assessed against a single cell, with different concentrations of the antagonist applied to other cells on the 384 recording substrate. The control P2X3 current amplitude was taken from the peak current amplitude from the second agonist response prior to preincubation with antagonist. The peak P2X3 current amplitude in the presence of antagonist was used to calculate the inhibitory effect at each concentration of the antagonist according to the following equation:
Percentage inhibition of P2X3=(P2X3 control peak amplitude−P2X3 antagonist peak amplitude)/P2X3 control peak amplitude)*100
Concentration-response curves were constructed from ten different concentrations with each concentration of antagonist tested on at least two individual cells. The concentration of the antagonist to inhibit P2X3 current by 50% (IC50) was determined by fitting the data with the following equation:
Y=a+[(b−a)/(1+10^((log c−x)d)]
Where ‘a’ is minimum response, ‘b’ is maximum response, ‘c’ is IC50 and ‘d’ is Hill slope.
A general note: In patch-clamp work, channel activity is measured electrically.

In the case of `C[C@@H](Nc1ncnc2c(OCC(=O)O)cc(-c3ccc(F)cc3)cc12)c1cnc(C(F)(F)F)nc1` [Example 39, (R)-2-((6-(4-fluorophenyl)-4-((1-(2-(trifluoromethyl)pyrimidin-5-yl)ethyl)amino)quinazolin-8-yl)oxy)acetic acid], the IC50 is below 316 nM.

Consider `C[C@@H](Nc1ncnc2c(OCC(=O)NS(=O)(=O)c3ccccc3)cc(-c3ccc(F)cc3)cc12)c1cnc(C(F)(F)F)nc1` [Example 40, (R)-2-((6-(4-fluorophenyl)-4-((1-(2-(trifluoromethyl)pyrimidin-5-yl)ethyl)amino)quinazolin-8-yl)oxy)-N-(phenylsulfonyl)acetamide], for which the IC50 was below 316 nM.

`C[C@@H](Nc1ncnc2c(OCC3(C(=O)O)CC3)cc(-c3ccc(F)cc3)cc12)c1cnc(C(F)(F)F)nc1` [Example 41, (R)-1-(((6-(4-fluorophenyl)-4-((1-(2-(trifluoromethyl)pyrimidin-5-yl)ethyl)amino)quinazolin-8-yl)oxy)methyl)cyclopropane-1-carboxylic acid]: the IC50 is 316 to 3160 nM.

As for `C[C@@H](Nc1ncnc2c(OCC(=O)NC3(C(=O)O)CC3)cc(-c3ccc(F)cc3)cc12)c1cnc(C(F)(F)F)nc1` [Example 44, (R)-1-(2-((6-(4-fluorophenyl)-4-((1-(2-(trifluoromethyl)pyrimidin-5-yl)ethyl)amino)quinazolin-8-yl)oxy)acetamido)cyclopropane-1-carboxylic acid], the IC50 is 316 to 3160 nM.

For the compound `Cc1ccc(CNc2ncnc3c(OCC(=O)N[C@H]4CCC[C@H]4C(=O)O)cc(-c4ccc(F)cc4)cc23)nn1` [Example 45, (1R,2S)-2-(2-((6-(4-fluorophenyl)-4-(((6-methylpyridazin-3-yl)methyl)amino)quinazolin-8-yl)oxy)acetamido)cyclopentane-1-carboxylic acid], the IC50 was below 316 nM.

Consider `CCOC(=O)[C@H]1CCC[C@H]1NC(=O)COc1cc(-c2ccc(F)cc2)cc2c(NCc3ccc(C)nn3)ncnc12` [Example 46, Ethyl (1S,2R)-2-(2-((6-(4-fluorophenyl)-4-(((6-methylpyridazin-3-yl)methyl)amino)quinazolin-8-yl)oxy)acetamido)cyclopentane-1-carboxylate], for which the IC50 was 316 to 3160 nM.

Take `C[C@@H](Nc1ncnc2c(OCC3(C(=O)O)CCCCC3)cc(-c3ccc(F)cc3)cc12)c1cnc(C(F)(F)F)nc1` [Example 48, (R)-1-(((6-(4-fluorophenyl)-4-((1-(2-(trifluoromethyl)pyrimidin-5-yl)ethyl)amino)quinazolin-8-yl)oxy)methyl)cyclohexane-1-carboxylic acid]: the IC50 is 316 to 3160 nM.

As to `Cc1cnc(-c2cc(OCC(=O)NS(=O)(=O)c3ccccc3)c3ncnc(NCc4ccc(C)nn4)c3c2)nc1` [Example 49, Ammonium (2-((4-(((6-methylpyridazin-3-yl)methyl)amino)-6-(5-methylpyrimidin-2-yl)quinazolin-8-yl)oxy)acetyl)(phenylsulfonyl) amide], the IC50 is below 316 nM.

Take `Cc1ccc(CNc2ncnc3c(OCC4(C)COC4)cc(-c4ccc(F)cc4)cc23)nn1` [Example 50, 6-(4-fluorophenyl)-8-[(3-methyloxetan-3-yl)methoxy]-N-[(6-methylpyridazin-3-yl)methyl]quinazolin-4-amine]: the IC50 is below 316 nM.

On to `Cc1ccc(CNc2ncnc3c(OCC4(C(F)(F)F)CC4)cc(-c4ccc(F)cc4)cc23)nn1` [Example 51, 6-(4-fluorophenyl)-N-[(6-methylpyridazin-3-yl)methyl]-8-[[1-(trifluoromethyl)cyclopropyl]methoxy]quinazolin-4-amine], for which the IC50 was 316 to 3160 nM.

`Cc1ccc(CNc2ncnc3c(OC4CN(C(=O)OC(C)(C)C)C4)cc(-c4ccc(F)cc4)cc23)nn1` [Example 52, tert-butyl 3-[6-(4-fluorophenyl)-4-[(6-methylpyridazin-3-yl)methylamino]quinazolin-8-yl]oxyazetidine-1-carboxylate]: the IC50 is 316 to 3160 nM.

On to `Cc1ccc(CNc2ncnc3c(OCC#N)cc(-c4ccc(F)cc4)cc23)nn1` [Example 53], for which the IC50 is below 316 nM.

In the case of `CON(C)C(=O)COc1cc(-c2ccc(F)cc2)cc2c(NCc3ccc(C)nn3)ncnc12` [Example 54, 2-[6-(4-fluorophenyl)-4-[(6-methylpyridazin-3-yl)methylamino]quinazolin-8-yl]oxy-N-methoxy-N-methyl-acetamide], the IC50 is below 316 nM.

As for `Cc1ccc(CNc2ncnc3c(OCCOCCO)cc(-c4ccc(F)cc4)cc23)nn1` [Example 55], the IC50 is below 316 nM.

Turning to `Cc1ccc(CNc2ncnc3c(OC4CCN(C)C4=O)cc(-c4ccc(F)cc4)cc23)nn1` (stereo not drawn) [Example 56, 3-[6-(4-fluorophenyl)-4-[(6-methylpyridazin-3-yl)methylamino]quinazolin-8-yl]oxy-1-methyl-pyrrolidin-2-one], the IC50 was 316 to 3160 nM.

Turning to `Cc1ccc(CNc2ncnc3c(OCc4ncco4)cc(-c4ccc(F)cc4)cc23)nn1` [Example 57, 6-(4-fluorophenyl)-N-[(6-methylpyridazin-3-yl)methyl]-8-(oxazol-2-ylmethoxy)quinazolin-4-amine], the IC50 was below 316 nM.

Regarding `Cc1ccc(CNc2ncnc3c(OCc4noc(C)n4)cc(-c4ccc(F)cc4)cc23)nn1` [Example 58, 6-(4-fluorophenyl)-8-[(5-methyl-1,2,4-oxadiazol-3-yl)methoxy]-N-[(6-methylpyridazin-3-yl)methyl]quinazolin-4-amine], the IC50 was below 316 nM.

As for `CCc1noc(COc2cc(-c3ccc(F)cc3)cc3c(NCc4ccc(C)nn4)ncnc23)n1` [Example 59, 8-[(3-ethyl-1,2,4-oxadiazol-5-yl)methoxy]-6-(4-fluorophenyl)-N-[(6-methylpyridazin-3-yl)methyl]quinazolin-4-amine], the IC50 is below 316 nM.

On to `Cc1ccc(CNc2ncnc3c(OCc4nnc(C5CC5)s4)cc(-c4ccc(F)cc4)cc23)nn1` [Example 60, 8-[(5-cyclopropyl-1,3,4-thiadiazol-2-yl)methoxy]-6-(4-fluorophenyl)-N-[(6-methylpyridazin-3-yl)methyl]quinazolin-4-amine], for which the IC50 was below 316 nM.

For `Cc1ccc(CNc2ncnc3c(OCC(=O)NCC(F)(F)F)cc(-c4ccc(F)cc4)cc23)nn1` [Example 61, 2-[6-(4-fluorophenyl)-4-[(6-methylpyridazin-3-yl)methylamino]quinazolin-8-yl]oxy-N-(2,2,2-trifluoroethyl)acetamide], the IC50 is 316 to 3160 nM.

Regarding `Cc1ccc(CNc2ncnc3c(OC4COC4)cc(-c4ccc(F)cc4)cc23)nn1` [Example 63, 6-(4-fluorophenyl)-N-((6-methylpyridazin-3-yl)methyl)-8-(oxetan-3-yloxy)quinazolin-4-amine], the IC50 was 316 to 3160 nM.

With `COC(=O)N1CCC(COc2cc(-c3ccc(F)cc3)cc3c(NCc4ccc(C)nn4)ncnc23)CC1` [Example 64, Methyl 4-[[6-(4-fluorophenyl)-4-[(6-methylpyridazin-3-yl)methylamino]quinazolin-8-yl]oxymethyl]piperidine-1-carboxylate], the IC50 is 316 to 3160 nM.

In the case of `COC(=O)N1CCCC(COc2cc(-c3ccc(F)cc3)cc3c(NCc4ccc(C)nn4)ncnc23)C1` (stereo not drawn) [Example 66, Methyl 3-[6-(4-fluorophenyl)-4-[(6-methylpyridazin-3-yl)methylamino]quinazolin-8-yl]oxymethyl]piperidine-1-carboxylate], the IC50 was 316 to 3160 nM.

For `COC(=O)N1CCC(COc2cc(-c3ccc(F)cc3)cc3c(NCc4ccc(C)nn4)ncnc23)C1` (stereo not drawn) [Example 67, Methyl 3-[[6-(4-fluorophenyl)-4-[(6-methylpyridazin-3-yl)methylamino]quinazolin-8-yl]oxymethyl]pyrrolidine-1-carboxylate], the IC50 was 316 to 3160 nM.
